Laboratory results taken from patent US20150105252A1, “SUBSTITUTED PYRAZOLES AS HERBICIDES” (E I DU PONT DE NEMOURS AND COMPANY, priority 2013, published 2015).

Legend:
barnyardgrass [1] = assay: Test B flood; type: in vivo, Echinochloa crus-galli; conditions: 250 g ai/ha, visual rating on 0 to 100 scale (0 no effect, 100 complete control), 13 to 15 days
Summary of the method: (§1)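 Visual ratings on a 0–100 scale, where 0 means no effect and 100 means complete control, were assigned by comparison with controls 13 to 15 days after treatment. Compounds went into paddy water over 2-leaf plants flooded to 3 cm.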

crabgrass, large [2] = assay: Test A postemergence; type: in vivo, Digitaria sanguinalis
Summary of the method: (§2)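 Visual injury ratings, 0 = no effect to 100 = complete control, taken about 10 days after treatment against untreated controls. Test chemicals, in a non-phytotoxic surfactant-containing solvent, were sprayed onto soil preemergence or onto one- to two-leaf plants (2–10 cm) postemergence, in loam–sand soil under greenhouse conditions.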

foxtail, giant [3] = assay: Test A preemergence; type: in vivo, Setaria faberii
Summary of the method: as §2

pigweed [4] = assay: Test A preemergence; type: in vivo, Amaranthus retroflexus
Summary of the method: as §2

pigweed [5] = assay: Test A postemergence; type: in vivo, Amaranthus retroflexus
Summary of the method: as §2

barnyardgrass [6] = assay: Test A postemergence; type: in vivo, Echinochloa crus-galli
Summary of the method: as §2

velvetleaf [7] = assay: Test A postemergence; type: in vivo, Abutilon theophrasti
Summary of the method: as §2

barnyardgrass [8] = assay: Test A preemergence; type: in vivo, Echinochloa crus-galli
Summary of the method: as §2

wheat [9] = assay: Test A preemergence; type: in vivo, Triticum aestivum; conditions: preemergence
Summary of the method: as §2

rice = assay: Test B flood; type: in vivo, Oryza sativa; conditions: 250 g ai/ha, visual rating on 0 to 100 scale (0 no effect, 100 complete control), 13 to 15 days
Summary of the method: as §1

ducksalad = assay: Test B flood; type: in vivo, Heteranthera limosa; conditions: 250 g ai/ha, visual rating on 0 to 100 scale (0 no effect, 100 complete control), 13 to 15 days
Summary of the method: as §1

foxtail, giant [10] = assay: Test A postemergence; type: in vivo, Setaria faberii
Summary of the method: as §2

corn [11] = assay: Test A preemergence; type: in vivo, Zea mays
Summary of the method: as §2

corn [12] = assay: Test A postemergence; type: in vivo, Zea mays
Summary of the method: as §2

morningglory [13] = assay: Test A postemergence; type: in vivo, Ipomoea spp.
Summary of the method: as §2

morningglory [14] = assay: Test A preemergence; type: in vivo, Ipomoea spp.
Summary of the method: as §2

wheat [15] = assay: Test A postemergence; type: in vivo, Triticum aestivum
Summary of the method: as §2

crabgrass, large [16] = assay: Test A preemergence; type: in vivo, Digitaria sanguinalis
Summary of the method: as §2

velvetleaf [17] = assay: Test A preemergence; type: in vivo, Abutilon theophrasti
Summary of the method: as §2

sedge, umbrella = assay: Test B flood; type: in vivo, Cyperus difformis; conditions: 250 g ai/ha, visual rating on 0 to 100 scale (0 no effect, 100 complete control), 13 to 15 days
Summary of the method: as §1

[18] = Postemergence, 500 g ai/ha, visual rating after approx. 10 days, 0 to 100 scale (0 no effect, 100 complete control)
[19] = postemergence, 125 g ai/ha, about 10 days, visual rating on 0 to 100 scale (0 no effect, 100 complete control)
[20] = preemergence, 125 g ai/ha, visual injury, 0 to 100 scale, approx. 10 days
[21] = preemergence, 500 g ai/ha, visual injury after approx. 10 days, 0 to 100 scale (0 no effect, 100 complete control)
[22] = 125 g ai/ha, visual injury, 0 to 100 scale, approx. 10 days
[23] = 500 g ai/ha, visual injury after approx. 10 days, 0 to 100 scale (0 no effect, 100 complete control)
[24] = Postemergence, 125 g ai/ha, 0 to 100 scale, 0 no effect, 100 complete control
[25] = Postemergence, 500 g ai/ha, 0 to 100 scale (0 no effect, 100 complete control)
[26] = preemergence, 125 g ai/ha, visual injury approx. 10 days after treatment
[27] = Preemergence, 500 g ai/ha, 0 to 100 scale, 0 no effect, 100 complete control

| Compound | Plant response rating, Barnyardgrass (barnyardgrass [1]) | Crabgrass, Large plant response rating (crabgrass, large [2]; [19]) | Foxtail, Giant plant response rating (foxtail, giant [3]; [20]) | Foxtail, Giant plant response rating (foxtail, giant [3]; [21]) | Pigweed plant response rating (pigweed [4]; [20]) | Pigweed plant response rating (pigweed [4]; [21]) | Pigweed plant response rating (pigweed [5]; [19]) | Velvetleaf plant response rating (velvetleaf [7]; [19]) | Barnyardgrass plant response rating (barnyardgrass [8]; [20]) | Barnyardgrass plant response rating (barnyardgrass [8]; [21]) | Wheat plant response rating (wheat [9]; [22]) | Wheat plant response rating (wheat [9]; [23]) | Plant response rating, Rice (rice) | Plant response rating, Ducksalad (ducksalad) | Foxtail, Giant plant response rating (foxtail, giant [10]; [19]) | Corn plant response rating (corn [11]; [20]) | Corn plant response rating (corn [12]; [19]) | Morningglory plant response rating (morningglory [13]; [19]) | Wheat plant response rating (wheat [15]; [19]) | Plant response rating, Sedge, Umbrella (sedge, umbrella) | also measured |
| --- | --- | --- | --- | --- | --- | --- | --- | --- | --- | --- | --- | --- | --- | --- | --- | --- | --- | --- | --- | --- | --- |
| CCCc1cc(-c2ccc(C(F)(F)F)cc2)nn1Cc1ccnc(C(F)(F)F)c1 [Compound 113] | 40 | 20 | 80 | 100 | 100 | 100 | 60 | 40 | 20 | 60 | 10 | 30 | 30 | 60 | 20 | 10 | 20 | 40 | 20 | 70 | Crabgrass, Large plant response rating (crabgrass, large [2]; [18]): 40; Pigweed plant response rating (pigweed [5]; [18]): 100; Barnyardgrass plant response rating (barnyardgrass [6]; [18]): 20; Barnyardgrass plant response rating (barnyardgrass [6]; [19]): 10; Velvetleaf plant response rating (velvetleaf [7]; [18]): 100; Foxtail, Giant plant response rating (foxtail, giant [10]; [18]): 40; Corn plant response rating (corn [11]; [21]): 10; Corn plant response rating (corn [12]; [18]): 20; Morningglory plant response rating (morningglory [13]; [18]): 100; Morningglory plant response rating (morningglory [14]; [20]): 40; Morningglory plant response rating (morningglory [14]; [21]): 70; Wheat plant response rating (wheat [15]; [18]): 20; Crabgrass, Large plant response rating (crabgrass, large [16]; [20]): 80; Crabgrass, Large plant response rating (crabgrass, large [16]; [21]): 100; Velvetleaf plant response rating (velvetleaf [17]; [20]): 30; Velvetleaf plant response rating (velvetleaf [17]; [21]): 40 |
| CCc1cc(C(=O)NC2CC2)nn1Cc1cccc(C(F)(F)F)n1 [Compound 91] | 0 | 0 | 0 | 0 | 0 | 40 | 20 | 10 | 0 | 0 | 0 | 0 | 0 | 0 | 0 | 0 | 0 | 10 | 0 | 0 | Crabgrass, Large plant response rating (crabgrass, large [2]; [18]): 10; Pigweed plant response rating (pigweed [5]; [18]): 40; Barnyardgrass plant response rating (barnyardgrass [6]; [24]): 0; Barnyardgrass plant response rating (barnyardgrass [6]; [18]): 10; Velvetleaf plant response rating (velvetleaf [7]; [18]): 10; Foxtail, Giant plant response rating (foxtail, giant [10]; [18]): 10; Corn plant response rating (corn [11]; [21]): 0; Corn plant response rating (corn [12]; [18]): 10; Morningglory plant response rating (morningglory [13]; [18]): 20; Morningglory plant response rating (morningglory [14]; [20]): 0; Morningglory plant response rating (morningglory [14]; [21]): 0; Wheat plant response rating (wheat [15]; [18]): 0; Crabgrass, Large plant response rating (crabgrass, large [16]; [20]): 0; Crabgrass, Large plant response rating (crabgrass, large [16]; [21]): 20; Velvetleaf plant response rating (velvetleaf [17]; [20]): 0; Velvetleaf plant response rating (velvetleaf [17]; [21]): 0 |
| CCCCNC(=O)c1cc(Br)n(Cc2cccc(C(F)(F)F)c2)n1 [Compound 162] | 0 | 10 | – | 60 | – | 0 | 40 | 0 | 0 | 0 | – | 0 | 0 | 0 | 10 | – | 10 | 20 | 0 | 0 | Crabgrass, Large plant response rating (crabgrass, large [2]; [25]): 20; Foxtail, Giant plant response rating (0 to 100 scale) (foxtail, giant [3]; [26]): 0; Pigweed plant response rating (0 to 100 scale) (pigweed [4]; [26]): 0; Pigweed plant response rating (pigweed [5]; [25]): 60; Barnyardgrass plant response rating (barnyardgrass [6]; [25]): 20; Barnyardgrass plant response rating (barnyardgrass [6]; [19]): 0; Velvetleaf plant response rating (velvetleaf [7]; [25]): 40; Wheat plant response rating (0 to 100 scale) (wheat [9]; 125 g ai/ha, visual injury approx. 10 days after treatment): 0; Foxtail, Giant plant response rating (foxtail, giant [10]; [25]): 20; Corn plant response rating (0 to 100 scale) (corn [11]; [26]): 0; Corn plant response rating (corn [11]; [21]): 0; Corn plant response rating (corn [12]; [25]): 20; Morningglory plant response rating (morningglory [13]; [25]): 40; Morningglory plant response rating (0 to 100 scale) (morningglory [14]; [26]): 0; Morningglory plant response rating (morningglory [14]; [21]): 0; Wheat plant response rating (wheat [15]; [25]): 0; Crabgrass, Large plant response rating (0 to 100 scale) (crabgrass, large [16]; [26]): 0; Crabgrass, Large plant response rating (crabgrass, large [16]; [21]): 30; Velvetleaf plant response rating (0 to 100 scale) (velvetleaf [17]; [26]): 0; Velvetleaf plant response rating (velvetleaf [17]; [21]): 0 |
| CCc1cc(C(=O)NC(C)C)nn1Cc1cc(C(F)(F)F)nn1CC [Compound 120] | 0 | 30 | 60 | 90 | 70 | 90 | 50 | 30 | 20 | 100 | 0 | 40 | 0 | 40 | 30 | 20 | 30 | 80 | 0 | 80 | Crabgrass, Large plant response rating (crabgrass, large [2]; [25]): 80; Pigweed plant response rating (pigweed [5]; [25]): 80; Barnyardgrass plant response rating (barnyardgrass [6]; [25]): 90; Barnyardgrass plant response rating (barnyardgrass [6]; [19]): 30; Velvetleaf plant response rating (velvetleaf [7]; [25]): 80; Foxtail, Giant plant response rating (foxtail, giant [10]; [25]): 70; Corn plant response rating (corn [11]; [21]): 50; Corn plant response rating (corn [12]; [25]): 60; Morningglory plant response rating (morningglory [13]; [25]): 100; Morningglory plant response rating (morningglory [14]; [20]): 70; Morningglory plant response rating (morningglory [14]; [21]): 100; Wheat plant response rating (wheat [15]; [25]): 30; Crabgrass, Large plant response rating (crabgrass, large [16]; [20]): 100; Crabgrass, Large plant response rating (crabgrass, large [16]; [21]): 100; Velvetleaf plant response rating (velvetleaf [17]; [20]): 10; Velvetleaf plant response rating (velvetleaf [17]; [21]): 70 |
| Cc1cc(C(=O)NC2CC2)nn1Oc1ccnc(C(F)(F)F)c1 [Compound 81] | 0 | 10 | 30 | – | 40 | – | 30 | 20 | 20 | – | 0 | 10 | 0 | 0 | 10 | 0 | 10 | 30 | 0 | 0 | Crabgrass, Large plant response rating (crabgrass, large [2]; [18]): 40; Foxtail, Giant plant response rating (foxtail, giant [3]; [27]): 100; Pigweed plant response rating (pigweed [4]; [27]): 90; Pigweed plant response rating (pigweed [5]; [18]): 50; Barnyardgrass plant response rating (barnyardgrass [6]; [24]): 0; Barnyardgrass plant response rating (barnyardgrass [6]; [18]): 20; Velvetleaf plant response rating (velvetleaf [7]; [18]): 30; Barnyardgrass plant response rating (barnyardgrass [8]; [27]): 70; Foxtail, Giant plant response rating (foxtail, giant [10]; [18]): 30; Corn plant response rating (corn [11]; [27]): 0; Corn plant response rating (corn [12]; [18]): 20; Morningglory plant response rating (morningglory [13]; [18]): 50; Morningglory plant response rating (morningglory [14]; [27]): 60; Morningglory plant response rating (morningglory [14]; [20]): 0; Wheat plant response rating (wheat [15]; [18]): 0; Crabgrass, Large plant response rating (crabgrass, large [16]; [27]): 100; Crabgrass, Large plant response rating (crabgrass, large [16]; [20]): 60; Velvetleaf plant response rating (velvetleaf [17]; [27]): 60; Velvetleaf plant response rating (velvetleaf [17]; [20]): 0 |
